Active and inactive are the calls of the source. No cut-off for these calls is given here.
Tests used:
[1] = test system: Mus musculus; experiment: Cmax in mouse assessed as (S)-2-(2,6-difluorobenzamido)-3-(4-(1,3,6-trimethyl-2,4-dioxo-1,2,3,4-tetrahydropyrimidin-5-yl)phenyl)propanoic acid level at 50 mg/kg, po; assay type: ADME, organism-based; set-up: dose 50 mg/kg, route oral; settings: in vivo
[2] = test system: Canis familiaris; experiment: Oral bioavailability in dog assessed as (S)-2-(2,6-difluorobenzamido)-3-(4-(1,3,6-trimethyl-2,4-dioxo-1,2,3,4-tetrahydropyrimidin-5-yl)phenyl)propanoic acid level at 50 mg/kg; assay type: ADME, organism-based, Canis lupus familiaris; settings: in vivo
[3] = test system: Mus musculus; experiment: AUC (0 to 24 hrs) in mouse assessed as (S)-2-(2,6-difluorobenzamido)-3-(4-(1,3,6-trimethyl-2,4-dioxo-1,2,3,4-tetrahydropyrimidin-5-yl)phenyl)propanoic acid level at 50 mg/kg, po; assay type: ADME, organism-based, Plasma; set-up: time < 24 hr, dose 50 mg/kg, route oral; settings: in vivo
[4] = test system: Cynomolgus monkey; experiment: Antiinflammatory activity in atopic cynomolgus monkey challenged with aerosolized Ascaris suum extract assessed as reduction in eosinophils influx into lungs at 1 and 30 mg/kg, po administered 4 hrs before antigen challenge measured 48 hrs after antigen challenge; assay type: functional, organism-based; set-up: dose 30 mg/kg; settings: Macaca fascicularis
[5] = test system: Cynomolgus monkey; experiment: AUC (0 to 24 hrs) in cynomolgus monkey assessed as (S)-2-(2,6-difluorobenzamido)-3-(4-(1,3,6-trimethyl-2,4-dioxo-1,2,3,4-tetrahydropyrimidin-5-yl)phenyl)propanoic acid level at 30 mg/kg, po; assay type: ADME, organism-based, Macaca fascicularis, Plasma; set-up: time < 24 hr, dose 30 mg/kg, route oral; settings: in vivo
[6] = test system: Cynomolgus monkey; experiment: Antiinflammatory activity in atopic cynomolgus monkey challenged with aerosolized Ascaris suum extract assessed as reduction in lymphocytes influx into lungs at 1 and 30 mg/kg, po administered 4 hrs before antigen challenge measured 48 hrs after antigen challenge; assay type: functional, organism-based; set-up: dose 30 mg/kg; settings: Macaca fascicularis
[7] = test system: Cynomolgus monkey; experiment: Oral bioavailability in cynomolgus monkey assessed as (S)-2-(2,6-difluorobenzamido)-3-(4-(1,3,6-trimethyl-2,4-dioxo-1,2,3,4-tetrahydropyrimidin-5-yl)phenyl)propanoic acid level at 30 mg/kg; assay type: ADME, organism-based, Macaca fascicularis; settings: in vivo
[8] = test system: Rattus norvegicus; experiment: Tmax in rat assessed as (S)-2-(2,6-difluorobenzamido)-3-(4-(1,3,6-trimethyl-2,4-dioxo-1,2,3,4-tetrahydropyrimidin-5-yl)phenyl)propanoic acid level at 50 mg/kg, po; assay type: ADME, organism-based; set-up: dose 50 mg/kg, route oral; settings: in vivo
[9] = Oral bioavailability in rat; assay type: ADME, organism-based; settings: in vivo
[10] = test system: Cynomolgus monkey; experiment: Antiinflammatory activity in atopic cynomolgus monkey challenged with aerosolized Ascaris suum extract assessed as reduction in neutrophils influx into lungs at 1 and 30 mg/kg, po administered 4 hrs before antigen challenge measured 48 hrs after antigen challenge; assay type: functional, organism-based; set-up: dose 30 mg/kg; settings: Macaca fascicularis
[11] = Apparent permeability across human Caco2 cells; assay type: ADME, cell-based; settings: Caco-2
[12] = test system: Mus musculus; experiment: Tmax in mouse assessed as (S)-2-(2,6-difluorobenzamido)-3-(4-(1,3,6-trimethyl-2,4-dioxo-1,2,3,4-tetrahydropyrimidin-5-yl)phenyl)propanoic acid level at 50 mg/kg, po; assay type: ADME, organism-based; set-up: dose 50 mg/kg, route oral; settings: in vivo
[13] = test system: Cynomolgus monkey; experiment: Cmax in cynomolgus monkey assessed as (S)-2-(2,6-difluorobenzamido)-3-(4-(1,3,6-trimethyl-2,4-dioxo-1,2,3,4-tetrahydropyrimidin-5-yl)phenyl)propanoic acid level at 30 mg/kg, po; assay type: ADME, organism-based, Macaca fascicularis; set-up: dose 30 mg/kg, route oral; settings: in vivo
[14] = Distribution coefficient, log D of the compound; assay type: physicochemical; settings: octanol/water
[15] = test system: Cynomolgus monkey; experiment: Tmax in cynomolgus monkey assessed as (S)-2-(2,6-difluorobenzamido)-3-(4-(1,3,6-trimethyl-2,4-dioxo-1,2,3,4-tetrahydropyrimidin-5-yl)phenyl)propanoic acid level at 30 mg/kg, po; assay type: ADME, organism-based, Macaca fascicularis; set-up: dose 30 mg/kg, route oral; settings: in vivo
[16] = test system: Canis familiaris; experiment: Cmax in dog assessed as (S)-2-(2,6-difluorobenzamido)-3-(4-(1,3,6-trimethyl-2,4-dioxo-1,2,3,4-tetrahydropyrimidin-5-yl)phenyl)propanoic acid level at 50 mg/kg, po; assay type: ADME, organism-based, Canis lupus familiaris; set-up: dose 50 mg/kg, route oral; settings: in vivo
[17] = test system: Canis familiaris; experiment: Tmax in dog assessed as (S)-2-(2,6-difluorobenzamido)-3-(4-(1,3,6-trimethyl-2,4-dioxo-1,2,3,4-tetrahydropyrimidin-5-yl)phenyl)propanoic acid level at 50 mg/kg, po; assay type: ADME, organism-based, Canis lupus familiaris; set-up: dose 50 mg/kg, route oral; settings: in vivo
[18] = test system: Rattus norvegicus; experiment: AUC (0 to 24 hrs) in rat assessed as (S)-2-(2,6-difluorobenzamido)-3-(4-(1,3,6-trimethyl-2,4-dioxo-1,2,3,4-tetrahydropyrimidin-5-yl)phenyl)propanoic acid level at 50 mg/kg, po; assay type: ADME, organism-based, Plasma; set-up: time < 24 hr, dose 50 mg/kg, route oral; settings: in vivo
[19] = test system: Canis familiaris; experiment: AUC (0 to 24 hrs) in dog assessed as (S)-2-(2,6-difluorobenzamido)-3-(4-(1,3,6-trimethyl-2,4-dioxo-1,2,3,4-tetrahydropyrimidin-5-yl)phenyl)propanoic acid level at 50 mg/kg, po; assay type: ADME, organism-based, Canis lupus familiaris, Plasma; set-up: time < 24 hr, dose 50 mg/kg, route oral; settings: in vivo
[20] = test system: Rattus norvegicus; experiment: Oral bioavailability in rat assessed as (S)-2-(2,6-difluorobenzamido)-3-(4-(1,3,6-trimethyl-2,4-dioxo-1,2,3,4-tetrahydropyrimidin-5-yl)phenyl)propanoic acid level at 50 mg/kg; assay type: ADME, organism-based; settings: in vivo
[21] = test system: Mus musculus; experiment: Oral bioavailability in mouse assessed as (S)-2-(2,6-difluorobenzamido)-3-(4-(1,3,6-trimethyl-2,4-dioxo-1,2,3,4-tetrahydropyrimidin-5-yl)phenyl)propanoic acid level at 50 mg/kg; assay type: ADME, organism-based; settings: in vivo
[22] = test system: Rattus norvegicus; experiment: Cmax in rat assessed as (S)-2-(2,6-difluorobenzamido)-3-(4-(1,3,6-trimethyl-2,4-dioxo-1,2,3,4-tetrahydropyrimidin-5-yl)phenyl)propanoic acid level at 50 mg/kg, po; assay type: ADME, organism-based; set-up: dose 50 mg/kg, route oral; settings: in vivo

- Cmax [1]: 2988 ng/mL
- F [2]: 6%
- AUC [3]: 8547 ng·h/mL
- AUC [5]: 3146 ng·h/mL
- F [7]: 7%
- Tmax [8]: 1.3 h
- bioavailability [9]: 9%
- Papp [11]: 26.9 ×10⁻⁶ cm/s
- Tmax [12]: 0.25 h
- Cmax [13]: 337 ng/mL
- logD [14]: 1.73
- Tmax [15]: 2 h
- Cmax [16]: 471 ng/mL
- Tmax [17]: 1 h
- AUC [18]: 18097 ng·h/mL
- AUC [19]: 1690 ng·h/mL
- F [20]: 9%
- F [21]: 22%
- Cmax [22]: 5287 ng/mL
SMILES: CCOC(=O)[C@H](Cc1ccc(-c2c(C)n(C)c(=O)n(C)c2=O)cc1)NC(=O)c1c(F)cccc1F
- Activity [4]: Active
- Activity [6]: Active
- Activity [10]: Active

Source: ChEMBL document CHEMBL2331362, “Identification of N-acyl 4-(5-pyrimidine-2,4-dionyl)phenylalanine derivatives and their orally active prodrug esters as dual-acting alpha4-beta1 and alpha4-beta7 receptor antagonists” (Bioorg Med Chem Lett, 2013)
